Key:
HCMV strain AD169 = experiment: Functional plaque reduction assay in HFF infected with human CMV; assay type: cell-based; conditions: for inhibition of CMV replication: plaque reduction assays in HFF treated with decreasing concentrations (Fig. 1-4)
Method: For the plaque reduction assay, HFF were seeded to 100 % confluency and then pre-treated with compound M8 at 8 different concentrations. HFF were subsequently infected with CMV strain AD169, washed and again incubated with two-fold dilutions of the compound. All experiments were done in triplicates (arrow bars show SEM). […] For the plaque reduction assay, HFF were seeded to 100 % confluency. The virus preparation of CMV strain AD169 was pretreated before infection of cells with compound M8 at 8 different concentrations. HFF were subsequently infected with CMV strain AD169, washed and again incubated with two-fold dilutions of the compound. All experiments were done in triplicates (arrow bars show SEM). […] For the plaque reduction assay HFF were seeded to 100 % confluency and subsequently infected with CMV strain AD169. Cells were washed thereafter and incubated with two-fold dilutions of the compound GCV. All experiments were done in triplicates (arrow bars show SEM). […] For the plaque reduction assay HFF were seeded to 100 % confluency and then pre-treated with compound RES at 8 different concentrations. HFF were subsequently infected with CMV strain AD169, washed and again incubated with two-fold dilutions of the compound. All experiments were done in triplicates (arrow bars show SEM).
HCMV strain AD169 was prepared as described previously (Rieder et al., J. Gen. Virol. 98 (2017), 471-485). For virus production, HFF were grown to confluence and subsequently infected with HCMV AD169 at a multiplicity of infection (MOI) of 0.01. The viral inoculum was replaced by culture medium after 90 min. Upon visibility of a total cytopathic effect (CPE) (usually 8-10 days post-infection), the viral supernatant was harvested and stored at - 80°C. After thawing, cell debris was removed by centrifugation at 3,000 g for 20 min. Infectivity of the viral inoculum was then measured using a plaque assay as described elsewhere (Britt, Curr. Protoc. Microbiol. (2010), 14E.3). […] Ganciclovir (Merck Millipore) was added at the indicated concentrations after removal of the inoculum. The cells were then overlaid with growth medium containing 0.5% low-melting point agarose. After solidification of the agarose layer, the plates were incubated for 10 days at 37°C in a CO2 incubator, then fixed with 2% formaldehyde and analysed for number of plaques after staining with 1:5 diluted Mayer's Hemalaun. Plaque numbers were normalized to the mean of DMSO-treated control samples. IC50 values were calculated with Graphpad Prism (dose-response inhibition).

HFF = experiment: Toxicity of the compounds to HFF (inhibition of cellular metabolism); assay type: cell-based, human
[1] = treatment of HFF after CMV infection, CMV strain AD169
[2] = Human betaherpesvirus 5, AD169, cells (HFF) pretreated with compound for 90 min, CMV strain AD169, plaques counted after 10 days
[3] = cells (HFF) pretreated with compound, CMV strain AD169
[4] = virus pretreated with compound, CMV strain AD169

| IC50 (HCMV strain AD169; [2]) [µM] | IC50 (HCMV strain AD169; Human betaherpesvirus 5, AD169, virus pretreated with compound for 90 min before infection of HFF, CMV strain AD169) [µM] | SMILES | inhibition of CMV replication (HCMV strain AD169) | concentration of complete inhibition (HCMV strain AD169; [1]) [µM] | concentration of initial inhibitory effect (HCMV strain AD169; [1]) [µM] | concentration at which some inhibition of CMV was noted (HCMV strain AD169; [3]) [µM] | concentration of complete inhibition of CMV (HCMV strain AD169; [3]) [µM] | concentration at which inhibition was noticed (HCMV strain AD169; [4]) [µM] | concentration of maximum inhibition (HCMV strain AD169; [4]) [µM] | concentration found to be toxic to the HFF (HFF) [µM] |
| --- | --- | --- | --- | --- | --- | --- | --- | --- | --- | --- |
|  |  | Nc1nc(O)c2ncn(COC(CO)CO)c2n1 [GCV, Ganciclovir, reference compound] | significant inhibition | ≥ 5 | 0.156 |  |  |  |  |  |
| ~37.5 | ~3 | Oc1cc(/C=C/c2cc(O)c(O)c(O)c2)cc(O)c1O [M8, 3,3',4,4',5,5'-hexahydroxy-trans-stilbene] | significant inhibition |  |  | 12.5 | 100 | 6.25 | 25 | > 100 |
| ~100 |  | Oc1ccc(C=Cc2cc(O)cc(O)c2)cc1 [RES, resveratrol, reference compound] | significant inhibition |  |  | 6.25 |  |  |  | > 100 |

— patent EP4516298A1, “STILBENE COMPOUNDS FOR USE IN THE TREATMENT AND PREVENTION OF INFECTIONS WITH CYTOMEGALOVIRUS (CMV)” (Szekeres, Thomas, priority 2023, dated 2025)
